Measurements from patent US10131652B2, “Pyrimidinyloxy benzene derivatives as herbicides” (E. I. DU PONT DE NEMOURS AND COMPANY, priority 2014, dated 2018).
Like-named read-outs stand apart in the source and are kept apart here.

Tests used:
Assay in all cases: Test D pre-/postemergence plant response
Type in all cases: in vivo
[1] = system: morningglory (Ipomoea coccinea); conditions: Ipomoea; for pest or weed control at 31 g/ha: 31 g ai/ha; for pest or weed control at 62 g/ha: 62 g ai/ha; for pest or weed control at 125 g/ha: 125 g ai/ha; for pest or weed control at 250 g/ha: 250 g ai/ha
How it was run: (§1)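 Ratings were visual, 0 = no effect to 100 = complete control, taken against untreated controls after 13 to 15 days in a greenhouse. Chemicals, formulated in non-phytotoxic surfactant-containing solvent, went onto soil (loam/sand) at planting for preemergence, or onto 1- to 4-leaf plants (2–18 cm) for postemergence.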

[2] = system: oilseed rape (Brassica napus); conditions: Brassica napus; for plant injury at 31 g/ha: 31 g ai/ha; for plant injury at 62 g/ha: 62 g ai/ha; for plant injury at 125 g/ha: 125 g ai/ha; for plant injury at 250 g/ha: 250 g ai/ha
How it was run: as §1

[3] = system: pigweed (Amaranthus retroflexus); conditions: Amaranthus retroflexus; for pest or weed control at 31 g/ha: 31 g ai/ha; for pest or weed control at 62 g/ha: 62 g ai/ha; for pest or weed control at 125 g/ha: 125 g ai/ha; for pest or weed control at 250 g/ha: 250 g ai/ha
How it was run: as §1

[4] = system: ragweed (common ragweed, Ambrosia elatior); conditions: Ambrosia artemisiifolia; for pest or weed control at 31 g/ha: 31 g ai/ha; for pest or weed control at 62 g/ha: 62 g ai/ha; for pest or weed control at 125 g/ha: 125 g ai/ha; for pest or weed control at 250 g/ha: 250 g ai/ha
How it was run: as §1

soybean (Glycine max) = conditions: Glycine max; for plant injury at 31 g/ha: 31 g ai/ha; for plant injury at 62 g/ha: 62 g ai/ha; for plant injury at 125 g/ha: 125 g ai/ha; for plant injury at 250 g/ha: 250 g ai/ha
How it was run: as §1

[5] = system: velvetleaf (Abutilon theophrasti); conditions: Abutilon theophrasti; for pest or weed control at 31 g/ha: 31 g ai/ha; for pest or weed control at 62 g/ha: 62 g ai/ha; for pest or weed control at 125 g/ha: 125 g ai/ha; for pest or weed control at 250 g/ha: 250 g ai/ha
How it was run: as §1

[6] = system: waterhemp (common waterhemp, Amaranthus rudis); conditions: Amaranthus tuberculatus; for pest or weed control at 31 g/ha: 31 g ai/ha; for pest or weed control at 62 g/ha: 62 g ai/ha; for pest or weed control at 125 g/ha: 125 g ai/ha; for pest or weed control at 250 g/ha: 250 g ai/ha
How it was run: as §1

[7] = system: winter wheat (Triticum aestivum); conditions: Triticum aestivum; for plant injury at 31 g/ha: 31 g ai/ha; for plant injury at 62 g/ha: 62 g ai/ha; for plant injury at 125 g/ha: 125 g ai/ha; for plant injury at 250 g/ha: 250 g ai/ha
How it was run: as §1

[8] = system: yellow nutsedge (Cyperus esculentus); conditions: Cyperus; for pest or weed control at 31 g/ha: 31 g ai/ha; for pest or weed control at 62 g/ha: 62 g ai/ha; for pest or weed control at 125 g/ha: 125 g ai/ha; for pest or weed control at 250 g/ha: 250 g ai/ha
How it was run: as §1

[9] = post-emergence, Postemergence, scale 0 to 100, 0 no effect, 100 complete control, read-out: Plant response rating, Morningglory
[10] = pre-emergence, Preemergence, read-out: Plant response rating (scale 0 to 100), Morningglory
[11] = pre-emergence, Preemergence, scale 0 to 100 (0 no effect, 100 complete control), read-out: Plant response rating, Morningglory
[12] = post-emergence, Postemergence, scale 0 to 100, 0 no effect, 100 complete control, read-out: Plant response rating, Oilseed Rape
[13] = pre-emergence, Preemergence, read-out: Plant response rating (scale 0 to 100), Oilseed Rape
[14] = pre-emergence, Preemergence, scale 0 to 100 (0 no effect, 100 complete control), read-out: Plant response rating, Oilseed Rape
[15] = post-emergence, Postemergence, scale 0 to 100, 0 no effect, 100 complete control, read-out: Plant response rating, Pigweed
[16] = pre-emergence, Preemergence, read-out: Plant response rating (scale 0 to 100), Pigweed
[17] = pre-emergence, Preemergence, scale 0 to 100 (0 no effect, 100 complete control), read-out: Plant response rating, Pigweed
[18] = post-emergence, Postemergence, scale 0 to 100, 0 no effect, 100 complete control, read-out: Plant response rating, Ragweed
[19] = pre-emergence, Preemergence, read-out: Plant response rating (scale 0 to 100), Ragweed
[20] = pre-emergence, Preemergence, scale 0 to 100 (0 no effect, 100 complete control), read-out: Plant response rating, Ragweed
[21] = post-emergence, Postemergence, scale 0 to 100, 0 no effect, 100 complete control, read-out: Plant response rating, Soybean
[22] = pre-emergence, Preemergence, read-out: Plant response rating (scale 0 to 100), Soybean
[23] = pre-emergence, Preemergence, scale 0 to 100 (0 no effect, 100 complete control), read-out: Plant response rating, Soybean
[24] = post-emergence, Postemergence, scale 0 to 100, 0 no effect, 100 complete control, read-out: Plant response rating, Velvetleaf
[25] = pre-emergence, Preemergence, read-out: Plant response rating (scale 0 to 100), Velvetleaf
[26] = pre-emergence, Preemergence, scale 0 to 100 (0 no effect, 100 complete control), read-out: Plant response rating, Velvetleaf
[27] = post-emergence, Postemergence, scale 0 to 100, 0 no effect, 100 complete control, read-out: Plant response rating, Waterhemp
[28] = pre-emergence, Preemergence, read-out: Plant response rating (scale 0 to 100), Waterhemp
[29] = pre-emergence, Preemergence, scale 0 to 100 (0 no effect, 100 complete control), read-out: Plant response rating, Waterhemp
[30] = post-emergence, Postemergence, scale 0 to 100, 0 no effect, 100 complete control, read-out: Plant response rating, Wheat
[31] = pre-emergence, Preemergence, read-out: Plant response rating (scale 0 to 100), Wheat
[32] = pre-emergence, Preemergence, scale 0 to 100 (0 no effect, 100 complete control), read-out: Plant response rating, Wheat
[33] = post-emergence, Postemergence, scale 0 to 100, 0 no effect, 100 complete control, read-out: Plant response rating, Nutsedge, Yellow
[34] = pre-emergence, Preemergence, read-out: Plant response rating (scale 0 to 100), Nutsedge, Yellow
[35] = pre-emergence, Preemergence, scale 0 to 100 (0 no effect, 100 complete control), read-out: Plant response rating, Nutsedge, Yellow

`FC(F)c1cc(-c2ccccc2Oc2ncc(Br)cn2)no1` [Compound 62, 5-bromo-2-[2-[5-(difluoromethyl)-3-isoxazolyl]phenoxy]pyrimidine] gave a pest or weed control at 31 g/ha ([1]; post-emergence, Postemergence, scale 0 to 100 (0 no effect, 100 complete control), read-out: Morningglory plant response rating) of 85%, a pest or weed control at 62 g/ha [1, 9] of 95% and a pest or weed control at 125 g/ha [1, 9] of 95%. For the same molecule, the pest or weed control at 250 g/ha [1, 9] was 98%, the pest or weed control at 125 g/ha [1, 10] was 98% and the pest or weed control at 250 g/ha [1, 10] was 100%. It also gave a pest or weed control at 31 g/ha [1, 11] of 25%, a pest or weed control at 62 g/ha [1, 11] of 55% and a plant injury at 31 g/ha ([2]; post-emergence, Postemergence, scale 0 to 100 (0 no effect, 100 complete control), read-out: Oilseed Rape plant response rating) of 80%. For the same molecule, the plant injury at 62 g/ha [2, 12] was 90%, the plant injury at 125 g/ha [2, 12] was 98% and the plant injury at 250 g/ha [2, 12] was 100%. The plant injury at 125 g/ha [2, 13] was 100%, the plant injury at 250 g/ha [2, 13] was 100% and the plant injury at 31 g/ha [2, 14] was 100%. It also gave a plant injury at 62 g/ha [2, 14] of 98%, a pest or weed control at 31 g/ha ([3]; post-emergence, Postemergence, scale 0 to 100 (0 no effect, 100 complete control), read-out: Pigweed plant response rating) of 98% and a pest or weed control at 62 g/ha [3, 15] of 100%. For the same molecule, the pest or weed control at 125 g/ha [3, 15] was 100%, the pest or weed control at 250 g/ha [3, 15] was 100% and the pest or weed control at 125 g/ha [3, 16] was 100%. The pest or weed control at 250 g/ha [3, 16] was 100%, the pest or weed control at 31 g/ha [3, 17] was 100% and the pest or weed control at 62 g/ha [3, 17] was 100%. It also gave a pest or weed control at 31 g/ha ([4]; post-emergence, Postemergence, scale 0 to 100 (0 no effect, 100 complete control), read-out: Ragweed plant response rating) of 65%, a pest or weed control at 62 g/ha [4, 18] of 60% and a pest or weed control at 125 g/ha [4, 18] of 65%. For the same molecule, the pest or weed control at 250 g/ha [4, 18] was 85%, the pest or weed control at 125 g/ha [4, 19] was 75% and the pest or weed control at 250 g/ha [4, 19] was 85%. It also gave a pest or weed control at 31 g/ha [4, 20] of 0%, a pest or weed control at 62 g/ha [4, 20] of 65% and a plant injury at 31 g/ha (soybean (Glycine max); post-emergence, Postemergence, scale 0 to 100 (0 no effect, 100 complete control), read-out: Soybean plant response rating) of 80%. It also gave a plant injury at 62 g/ha (soybean (Glycine max); [21]) of 95%, a plant injury at 125 g/ha (soybean (Glycine max); [21]) of 98% and a plant injury at 250 g/ha (soybean (Glycine max); [21]) of 98%. It also gave a plant injury at 125 g/ha (soybean (Glycine max); [22]) of 85%, a plant injury at 250 g/ha (soybean (Glycine max); [22]) of 95% and a plant injury at 31 g/ha (soybean (Glycine max); [23]) of 60%. The plant injury at 62 g/ha (soybean (Glycine max); [23]) was 70%, the pest or weed control at 31 g/ha ([5]; post-emergence, Postemergence, scale 0 to 100 (0 no effect, 100 complete control), read-out: Velvetleaf plant response rating) was 60% and the pest or weed control at 62 g/ha [5, 24] was 70%. For the same molecule, the pest or weed control at 125 g/ha [5, 24] was 75%, the pest or weed control at 250 g/ha [5, 24] was 85% and the pest or weed control at 125 g/ha [5, 25] was 100%. It also gave a pest or weed control at 250 g/ha [5, 25] of 100%, a pest or weed control at 31 g/ha [5, 26] of 90% and a pest or weed control at 62 g/ha [5, 26] of 100%. For the same molecule, the pest or weed control at 31 g/ha ([6]; post-emergence, Postemergence, scale 0 to 100 (0 no effect, 100 complete control), read-out: Waterhemp plant response rating) was 98%, the pest or weed control at 62 g/ha [6, 27] was 98% and the pest or weed control at 125 g/ha [6, 27] was 98%. For the same molecule, the pest or weed control at 250 g/ha [6, 27] was 100%, the pest or weed control at 125 g/ha [6, 28] was 100% and the pest or weed control at 250 g/ha [6, 28] was 100%. It also gave a pest or weed control at 31 g/ha [6, 29] of 100%, a pest or weed control at 62 g/ha [6, 29] of 100% and a plant injury at 31 g/ha ([7]; post-emergence, Postemergence, scale 0 to 100 (0 no effect, 100 complete control), read-out: Wheat plant response rating) of 30%. The plant injury at 62 g/ha [7, 30] was 20%, the plant injury at 125 g/ha [7, 30] was 10% and the plant injury at 250 g/ha [7, 30] was 40%. The plant injury at 125 g/ha [7, 31] was 40%, the plant injury at 250 g/ha [7, 31] was 50% and the plant injury at 31 g/ha [7, 32] was 0%. For the same molecule, the plant injury at 62 g/ha [7, 32] was 10%, the pest or weed control at 31 g/ha ([8]; post-emergence, Postemergence, scale 0 to 100 (0 no effect, 100 complete control), read-out: Nutsedge, Yellow plant response rating) was 5% and the pest or weed control at 62 g/ha [8, 33] was 5%. It also gave a pest or weed control at 125 g/ha [8, 33] of 5%, a pest or weed control at 250 g/ha [8, 33] of 10% and a pest or weed control at 125 g/ha [8, 34] of 10%. It also gave a pest or weed control at 250 g/ha [8, 34] of 60%, a pest or weed control at 31 g/ha [8, 35] of 0% and a pest or weed control at 62 g/ha [8, 35] of 5%.
